Literature values as cited in US20050182026A1, “Use of phospholipids in peritoneal dialysis” (priority 2002, published 2005).

What was measured:
[1] = system: respiratory distress syndrome; settings: various physical forms, used for two decades in newborns

solubility in water: highly insoluble in water
critical micelle concentration (in water): 5×10^−10 Molar
SMILES: CCCCCCCCCCCCCCCC(=O)OC[C@H](COP(=O)([O-])OCC[N+](C)(C)C)OC(=O)CCCCCCCCCCCCCCC [DPPC, dipalmitoylphosphatidylcholine]
safety in clinical use [1]: complete safety
